Source: patent publication US12370202B2, “Methods and compositions for inhibiting the NLRP3 inflammasome and/or LON protease” (TRITERPENOID THERAPEUTICS, INC., priority 2019, dated 2025)

Legend:
U251 = assay: GBM cell growth (confluence), IncuCyte; assay type: cell-based, human; conditions: not shown
Method: (§1) To define the capacity of CDDO-2P-IM to suppress the growth and viability of GBM, several well-characterized human GBM cell lines (U251, U-87MG, LN227, Gli36Δ5), primary cultures of patient-derived GBM cells (UVM04, D028), and normal human astrocytes (provided by Dr. Arti Gaur, Dartmouth College) were utilized.
(§2) The activity of CDDO-2P-IM in cultures of human GBM was assessed and similar nanomolar (nM) potency was observed. […] These changes in confluence observed by Incucyte® corresponded with a reduction in cell viability. Doses of CDDO-2P-IM that result in complete cell death of the LN227, U251 and U-87MG cell lines had no effect on the viability of primary human astrocytes in vitro (not shown).

brain tumor cell lines = assay: Radiation response of brain tumor cell lines in vitro; assay type: cell-based
5T33MM cells = assay: 5T33MM syngeneic preclinical model of multiple myeloma; assay type: in vivo
Excerpt: FIG. 1 is a survival curve. Survival of mice receiving either ixazomib (IXZ) or CDDO-2P-Im starting 21 days after tumor cell injection (n=5 mice per group). CDDO-2P-Im is active in the […] preclinical model of multiple myeloma.
A well-characterized syngeneic model of MM was employed. Adoptive transfer of 5T33MM cells into C57BL/KaLwRij recipient mice invariably leads to MM bone disease, impaired hematopoietic function and death.
To monitor MM tumor progression in the 5T33MM preclinical model, a 5T33MM cell line that expresses either luciferase or GFP genes was established by transducing with lentiviral particles containing firefly luciferase and GFP genes (Amsibo, Cambridge, MA); cells were selected with FACS sorting for GFP expression and by puromycin-resistance. For these experiments, 1×10^6 5T33MM-luc cells were introduced by intravenous injection into C57BL/KaLwRij mice at 2 months of age. Bioluminescence (BLI) was measured by using the IVIS Imaging System 100 (Xenogen). At 3 weeks after 5T33MM cell inoculation (where mice have established disease by BLI), mice were randomized to receive either vehicle, CDDO-2P-IM ([…] daily administered by oral gavage (po), 5 days/week), or ixazomib (IXZ; 6 mg/kg per week, administered po every Monday, Wednesday and Friday).

Caspase 1 = Caspase 1 activation in LPS-primed BMDM, immunoblotting (caspase-p10); assay type: cell-based, mouse; conditions: different doses (30-1000 nM) 15 min before ATP (5 mM) 45 min
Method: FIG. 5 depicts a Western blot. CDDO-Im, CDDO-2P-Im, and CDDO-3P-Im inhibit Caspase 1 activation. LPS primed BMDM were treated with different doses of CDDO-Im, CDDO-2P-Im, or CDDO-3P-Im for 15 min before ATP (5 mM) was added for 45 min. Medium supernatant (SUP) and cell extracts (Lys) were analyzed by immunoblotting.
The effects of the pyridyl derivatives of CDDO-IM, (specifically, CDDO-2P-Im and CDDO-3P-Im) on NLRP3 inflammasome activation were tested in mouse BMDMs. Cells were first primed with LPS for 4 hours, then pretreated with specific doses of either CDDO-Im, CDDO-2P-IM or CDDO-3P-Im (30-1000 nM) for 15 min before ATP was added for another 45 min. CDDO-Im and its pyridyl derivatives inhibited the amount of caspase-p10 (an auto-processed fragment of caspase-1) released into cell culture supernatants in a dose-dependent manner as measured by Western blot (FIG. 5). […] The effect on caspase-1 activation is specific for the NLRP3 inflammasome as the AIM2 inflammasome activation by poly(dA:dT) was not inhibited by the synthetic CDDO-Im derivatives (data not shown).

primary human astrocytes = assay: Viability of primary human astrocytes; assay type: cell-based; conditions: doses that result in complete cell death of LN227, U251 and U-87MG; not shown
Method: as §1, §2

[1] = test system: primary cultures of patient-derived GBM cells; assay: Cell viability in primary cultures of human GBM; assay type: cell-based
Method: as §1, §2

[2] = Drug levels in brain after systemic dosing, HPLC/Mass Spec; assay type: in vivo, Mice
Method: Mice (3 per group) were treated with single intraperitoneal (i.p.) doses of either 1 micromole (low dose) or 2 micromoles (high dose) of CDDO-2P-Im in DMSO. Brains were analyzed either 3 or 6 hours after dosing. Brains were homogenized in saline, then extracted with acetonitrile, and the extracts subjected to HPLC/Mass Spec analysis, using appropriate standard curves from spiked homogenates. Values obtained (in nanomoles/kg of brain) were: 270+/−80 (low dose, 3 hours); 300+/−90 (low dose, 6 hours); 2,600+/−2,200 (high dose, 3 hours); and 540+/−260 (high dose, 6 hours).
A second experiment with oral or i.p. dosing of 1 micromole of CDDO-2P-Im, and analysis at 6 hours, confirmed the above results, with drug levels in brain ranging from 140 to 900 nanomoles/kg of brain in 10 different samples from cerebral cortex.

LONP1 = LONP1 (Homo sapiens, UniProt P36776); assay: Binding to LONP1
CCL2 = CCL2 expression in LPS-stimulated human macrophages, RT-qPCR; assay type: cell-based; conditions: 500 pM, 16 hours pretreatment, then 10 ng/ml LPS 24 hours
Method: FIG. 10 is a bar graph. CDDO-Me, CDDO-Im, CDDO-2P-Im, and CDDO-3P-Im inhibit expression of CCL2 in human macrophages at picomolar concentrations.
Human peripheral blood monocytes were isolated using CD14 magnetic beads and differentiated with 20 ng/ml M-CSF for with 5 days and pretreated or not with 300 nM CDDO-Me; 500 pM CDDO-Im; 500 pM CDDO-2p-Im; 500 pM CDDO-3p-Im for 16 hours, followed by stimulation with 10 ng/ml LPS for an additional 24 hours. Total RNA was extracted and analyzed by RT-qPCR (Tagman) for cytokine expression.

Sequence of LONP1 (P36776 68-959, species assumed): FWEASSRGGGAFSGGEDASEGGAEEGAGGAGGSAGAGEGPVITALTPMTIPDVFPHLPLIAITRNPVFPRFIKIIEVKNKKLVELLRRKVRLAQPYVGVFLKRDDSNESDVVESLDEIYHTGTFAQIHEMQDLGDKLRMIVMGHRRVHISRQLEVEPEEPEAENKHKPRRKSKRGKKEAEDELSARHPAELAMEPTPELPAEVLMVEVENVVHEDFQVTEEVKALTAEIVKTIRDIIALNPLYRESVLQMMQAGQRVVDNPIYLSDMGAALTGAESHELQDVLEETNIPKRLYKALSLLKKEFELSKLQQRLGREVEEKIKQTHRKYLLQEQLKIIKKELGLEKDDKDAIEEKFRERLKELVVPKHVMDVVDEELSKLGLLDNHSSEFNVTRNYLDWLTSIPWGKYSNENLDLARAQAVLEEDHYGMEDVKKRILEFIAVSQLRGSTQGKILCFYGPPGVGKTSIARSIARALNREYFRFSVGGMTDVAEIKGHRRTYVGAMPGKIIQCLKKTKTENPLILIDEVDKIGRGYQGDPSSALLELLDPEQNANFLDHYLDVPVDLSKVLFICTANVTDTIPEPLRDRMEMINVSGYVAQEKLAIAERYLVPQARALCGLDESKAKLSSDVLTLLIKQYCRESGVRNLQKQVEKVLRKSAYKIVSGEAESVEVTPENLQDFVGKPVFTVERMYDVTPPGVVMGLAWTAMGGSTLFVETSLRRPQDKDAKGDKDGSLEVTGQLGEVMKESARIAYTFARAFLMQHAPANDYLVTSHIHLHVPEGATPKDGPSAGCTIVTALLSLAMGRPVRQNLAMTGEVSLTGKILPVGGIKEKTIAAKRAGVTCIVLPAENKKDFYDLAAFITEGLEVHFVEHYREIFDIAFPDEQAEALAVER

CC1(C)CC[C@]2(C(=O)n3cnc(-c4ccccn4)c3)CC[C@]3(C)[C@H](C(=O)C=C4[C@@]5(C)C=C(C#N)C(=O)C(C)(C)[C@@H]5CC[C@]43C)[C@@H]2C1 [CDDO-2P-Im, 1-[2-Cyano-3,12-dioxooleana-1,9(11)-dien-28-oyl]-4(-pyridin-2-yl)-1H-imidazole]
confluence (growth) (U251): dose-dependent reduction
radiation response (brain tumor cell lines): enhances radiation response
anti-MM activity (survival) as a single agent (5T33MM cells; daily oral gavage 5 days/week from 3 weeks after 5T33MM-luc inoculation, compared to IXZ 6 mg/kg per week po): comparable to or better than IXZ
tolerability (5T33MM cells; daily oral regimen): well tolerated
Caspase 1 activation (caspase-p10 released into supernatant) (Caspase 1): inhibit
viability (primary human astrocytes): no effect
concentrations at which a significant reduction in cell viability was observed [1]: below 100 nM
level in brain ([2]; single i.p. 1 micromole (low dose) in DMSO, 3 hours): 270+/−80 nanomoles/kg of brain
level in brain ([2]; single i.p. 1 micromole (low dose) in DMSO, 6 hours): 300+/−90 nanomoles/kg of brain
level in brain ([2]; single i.p. 2 micromoles (high dose) in DMSO, 3 hours): 2,600+/−2,200 nanomoles/kg of brain
level in brain ([2]; single i.p. 2 micromoles (high dose) in DMSO, 6 hours): 540+/−260 nanomoles/kg of brain
binding to LONP1 (LONP1): shown to bind LONP1
expression of CCL2 (CCL2): inhibit
